# Measurements from patent US11458123B2 (Arvinas, Inc., priority 2016, dated 2022).
# Test system: tau protein
# Assay: Tau protein in vitro degradation assay (Western blot, Tau-13 antibody)
# Assay type: cell-based, human
# Conditions: SK-N-SH cells; 72 hours of incubation; tested at 300 nM, 100 nM, 33 nM and 11 nM; Western blot, Tau-13 antibody
# Procedure, shortened: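 Tau degradation read by Tau-13 Western blot (detects all human tau forms) of SDS-PAGE-resolved lysates from SK-N-SH cells. Cells were plated at least 18 h before 72 h exposure to PROTACs at either 1000/300/100 nM or 300/100/33/11 nM.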
Structure (SMILES),Degradation activity* (highest amount of degradation observed at any dosage; tau protein remaining),Degradation activity (tau protein remaining; highest amount of degradation observed at any dosage)
"Cn1c2ccncc2c2ccc(-c3ccc(O[C@H]4C[C@H](Oc5ccc(CCCCCOc6ccc7c(c6)C(=O)N(C6CCC(=O)NC6=O)C7=O)nc5)C4)nc3)cc21 (stereo partly shown) [Compound 95, 2-(2,6-dioxopiperidin-3-yl)-5-((5-(5-((1r,3r)-3-((5-(5-methyl-5H-pyrido[4,3-b]indol-7-yl)pyridin-2-yl)oxy)cyclobutoxy)pyridin-2-yl)pentyl)oxy)isoindoline-1,3-dione]",C (>80% tau protein remaining after 72 hours of incubation with the test compound),
"Cn1c2ccncc2c2ccc(-c3ccc(O[C@H]4C[C@H](Oc5cnc(CCCCCCOc6ccc7c(c6)C(=O)N(C6CCC(=O)NC6=O)C7=O)nc5)C4)nc3)cc21 (stereo partly shown) [Compound 151, 2-(2,6-dioxopiperidin-3-yl)-5-((6-(5-((1r,3r)-3-((5-(5-methyl-5H-pyrido[4,3-b]indol-7-yl)pyridin-2-yl)oxy)cyclobutoxy)pyrimidin-2-yl)hexyl)oxy)isoindoline-1,3-dione]",B (≤80% and >50% tau protein remaining after 72 hours of incubation with the test compound),
"Cn1c2ccncc2c2ccc(-c3ccc(O[C@H]4C[C@H](Oc5ccc(C#CCOc6ccc7c(c6)C(=O)N(C6CCC(=O)NC6=O)C7=O)nc5)C4)nc3)cc21 (stereo partly shown) [Compound 117, 2-(2,6-dioxopiperidin-3-yl)-5-((3-(5-((1r,3r)-3-((5-(5-methyl-5H-pyrido[4,3-b]indol-7-yl)pyridin-2-yl)oxy)cyclobutoxy)pyridin-2-yl)prop-2-yn-1-yl)oxy)isoindoline-1,3-dione]",C (>80% tau protein remaining after 72 hours of incubation with the test compound),
"Cn1c2ccncc2c2ccc(-c3ccc(O[C@H]4C[C@H](Oc5ccc(C#CCOCCOc6ccc7c(c6)C(=O)N(C6CCC(=O)NC6=O)C7=O)nc5)C4)nc3)cc21 (stereo partly shown) [Compound 179, 2-(2,6-dioxopiperidin-3-yl)-5-(2-((3-(5-((1r,3r)-3-((5-(5-methyl-5H-pyrido[4,3-b]indol-7-yl)pyridin-2-yl)oxy)cyclobutoxy)pyridin-2-yl)prop-2-yn-1-yl)oxy)ethoxy)isoindoline-1,3-dione]",,A (≤50% tau protein remaining after 72 hours of incubation with the test compound)
"O=C1CCC(N2C(=O)c3ccc(OCCOCCOCCOCCOCCOc4ccc(-c5ccc6c(c5)[nH]c5ccncc56)cn4)cc3C2=O)C(=O)N1 (stereo not shown) [Compound 51, 5-((14-((5-(5H-pyrido[4,3-b]indol-7-yl)pyridin-2-yl)oxy)-3,6,9,12-tetraoxatetradecyl)oxy)-2-(2,6-dioxopiperidin-3-yl)isoindoline-1,3-dione]",A (≤50% tau protein remaining after 72 hours of incubation with the test compound),
"O=C1CCC(N2C(=O)c3ccc(OCCCCCC(=O)N4CCC(O[C@H]5C[C@H](Oc6ccc(-c7ccc8c(c7)[nH]c7ccncc78)cn6)C5)CC4)cc3C2=O)C(=O)N1 (stereo partly shown) [Compound 164, 5-(6-(4-((1r,3r)-3-(5-(5H-pyrido[4,3-b]indol-7-yl)pyridin-2-yloxy)cyclobutoxy)piperidin-1-yl)-6-oxohexyloxy)-2-(2,6-dioxopiperidin-3-yl)isoindoline-1,3-dione]",C (>80% tau protein remaining after 72 hours of incubation with the test compound),
"Cc1ncsc1-c1ccc(CNC(=O)[C@@H]2C[C@@H](O)CN2C(=O)[C@H](C(C)C)N2Cc3ccccc3C2=O)c(OCCOCCOCCOc2ccc(-c3ccc4c(c3)[nH]c3ccncc34)cn2)c1 [Compound 187, (2S,4R)—N-(2-(2-(2-(2-((5-(5H-pyrido[4,3-b]indol-7-yl)pyridin-2-yl)oxy)ethoxy)ethoxy)ethoxy)-4-(4-methylthiazol-5-yl)benzyl)-4-hydroxy-1-((S)-3-methyl-2-(1-oxoisoindolin-2-yl)butanoyl)pyrrolidine-2-carboxamide]",,C (>80% tau protein remaining after 72 hours of incubation with the test compound)
"Cn1c2ccncc2c2ccc(-c3cnc(CCCN4CCN(CCCCCOc5ccc6c(c5)C(=O)N(C5CCC(=O)NC5=O)C6=O)CC4)c(C(F)(F)F)c3)cc21 (stereo not shown) [Compound 63, 2-(2,6-dioxopiperidin-3-yl)-5-((5-(4-(3-(5-(5-methyl-5H-pyrido[4,3-b]indol-7-yl)-3-(trifluoromethyl)pyridin-2-yl)propyl)piperazin-1-yl)pentyl)oxy)isoindoline-1,3-dione]",C (>80% tau protein remaining after 72 hours of incubation with the test compound),
"Cn1c2ccncc2c2ccc(-c3ccc(O[C@H]4C[C@H](OC5CCN(c6cc(OCCOc7ccc8c(c7)C(=O)N(C7CCC(=O)NC7=O)C8=O)cnn6)CC5)C4)nc3)cc21 (stereo partly shown) [Compound 158, 2-(2,6-dioxopiperidin-3-yl)-5-(2-((6-(4-((1r,3r)-3-((5-(5-methyl-5H-pyrido[4,3-b]indol-7-yl)pyridin-2-yl)oxy)cyclobutoxy)piperidin-1-yl)pyridazin-4-yl)oxy)ethoxy)isoindoline-1,3-dione]",C (>80% tau protein remaining after 72 hours of incubation with the test compound),
"Cn1c2ccncc2c2ccc(-c3cnc(O[C@H]4C[C@H](Oc5ccc(C#CCN6CC(Oc7ccc8c(c7)C(=O)N(C7CCC(=O)NC7=O)C8=O)C6)nc5)C4)c(C(F)(F)F)c3)cc21 (stereo partly shown) [Compound 142, 2-(2,6-dioxopiperidin-3-yl)-5-((1-(3-(5-((1r,3r)-3-((5-(5-methyl-5H-pyrido[4,3-b]indol-7-yl)-3-(trifluoromethyl)pyridin-2-yl)oxy)cyclobutoxy)pyridin-2-yl)prop-2-yn-1-yl)azetidin-3-yl)oxy)isoindoline-1,3-dione]",C (>80% tau protein remaining after 72 hours of incubation with the test compound),

# Same assay, conditions: SK-N-SH cells; 72 hours of incubation; tested at 1000 nM, 300 nM and 100 nM
row,Structure (SMILES),"Activity* (highest amount of degradation observed at any dosage, as tau protein remaining)"
1,"Cc1ncsc1-c1ccc([C@H](C)NC(=O)[C@@H]2C[C@@H](O)CN2C(=O)[C@@H](NC(=O)COCCCCCOc2ccc3nc(-c4ccc(N(C)C)cc4)ccc3c2)C(C)(C)C)cc1 [Compound 38, (2S,4R)-1-((S)-2-(2-(5-(2-(4-(dimethylamino)phenyl)quinolin-6-yloxy)pentyloxy)acetamido)-3,3-dimethylbutanoyl)-4-hydroxy-N—((S)-1-(4-(4-methylthiazol-5-yl)phenyl)ethyl)pyrrolidine-2-carboxamide]",C (>80% tau protein remaining after 72 hours of incubation with the test compound)
2,"Cc1ncsc1-c1ccc(CNC(=O)[C@@H]2C[C@@H](O)CN2C(=O)[C@@H](NC(=O)COCCOCCOCCOc2ccc3nc(-c4ccc(N(C)C)cc4)ccc3c2)C(C)(C)C)cc1 [Compound 29, (2S,4R)-1-((S)-2-tert-butyl-14-(2-(4-(dimethylamino)phenyl)quinolin-6-yloxy)-4-oxo-6,9,12-trioxa-3-azatetradecane)-4-hydroxy-N-(4-(4-methylthiazol-5-yl)benzyl)pyrrolidine-2-carboxamide]",C (>80% tau protein remaining after 72 hours of incubation with the test compound)
3,"Cc1ncsc1-c1ccc(CNC(=O)[C@@H]2C[C@@H](O)CN2C(=O)[C@@H](NC(=O)COCCOCCOCCOc2ccc(-c3ccc4c(c3)[nH]c3ccncc34)cn2)C(C)(C)C)cc1 [Compound 1, (2S,4R)-1-((S)-14-(5-(5H-pyrido[4,3-b]indol-7-yl)pyridin-2-yloxy)-2-tert-butyl-4-oxo-6,9,12-trioxa-3-azatetradecane)-4-hydroxy-N-(4-(4-methylthiazol-5-yl)benzyl)pyrrolidine-2-carboxamide]",C (>80% tau protein remaining after 72 hours of incubation with the test compound)
4,Cc1ncsc1-c1ccc(CNC(=O)[C@@H]2C[C@@H](O)CN2C(=O)[C@@H](NC(=O)COCCOCCOCC(=O)N2CCN(c3ccn4c(n3)nc3ccccc34)CC2)C(C)(C)C)cc1 [Compound 10],C (>80% tau protein remaining after 72 hours of incubation with the test compound)
5,"Cc1ncsc1-c1ccc([C@H](C)NC(=O)[C@@H]2C[C@@H](O)CN2C(=O)[C@@H](NC(=O)COCCCOCCCOc2ccc3nc(-c4ccc(N(C)C)cc4)ccc3c2)C(C)(C)C)cc1 [Compound 36, (2S,4R)-1-((S)-2-(2-(3-(3-(2-(4-(dimethylamino)phenyl)quinolin-6-yloxy)propoxy)propoxy)acetamido)-3,3-dimethylbutanoyl)-4-hydroxy-N—((S)-1-(4-(4-methylthiazol-5-yl)phenyl)ethyl)pyrrolidine-2-carboxamide]",C (>80% tau protein remaining after 72 hours of incubation with the test compound)
6,"Cc1ncsc1-c1ccc([C@H](C)NC(=O)[C@@H]2C[C@@H](O)CN2C(=O)[C@@H](NC(=O)COCCOCCOCCOCCCOc2ccc3nc(-c4ccc(N(C)C)cc4)ccc3c2)C(C)(C)C)cc1 [Compound 39, (2S,4R)-1-((S)-2-tert-butyl-18-(2-(4-(dimethylamino)phenyl)quinolin-6-yloxy)-4-oxo-6,9,12,15-tetraoxa-3-azaoctadecane)-4-hydroxy-N—((S)-1-(4-(4-methylthiazol-5-yl)phenyl)ethyl)pyrrolidine-2-carboxamide]",C (>80% tau protein remaining after 72 hours of incubation with the test compound)
